The target in the first assay is T1, human O-GlcNAcase (Homo sapiens, UniProt O60502).
T1 sequence (O60502 1-916): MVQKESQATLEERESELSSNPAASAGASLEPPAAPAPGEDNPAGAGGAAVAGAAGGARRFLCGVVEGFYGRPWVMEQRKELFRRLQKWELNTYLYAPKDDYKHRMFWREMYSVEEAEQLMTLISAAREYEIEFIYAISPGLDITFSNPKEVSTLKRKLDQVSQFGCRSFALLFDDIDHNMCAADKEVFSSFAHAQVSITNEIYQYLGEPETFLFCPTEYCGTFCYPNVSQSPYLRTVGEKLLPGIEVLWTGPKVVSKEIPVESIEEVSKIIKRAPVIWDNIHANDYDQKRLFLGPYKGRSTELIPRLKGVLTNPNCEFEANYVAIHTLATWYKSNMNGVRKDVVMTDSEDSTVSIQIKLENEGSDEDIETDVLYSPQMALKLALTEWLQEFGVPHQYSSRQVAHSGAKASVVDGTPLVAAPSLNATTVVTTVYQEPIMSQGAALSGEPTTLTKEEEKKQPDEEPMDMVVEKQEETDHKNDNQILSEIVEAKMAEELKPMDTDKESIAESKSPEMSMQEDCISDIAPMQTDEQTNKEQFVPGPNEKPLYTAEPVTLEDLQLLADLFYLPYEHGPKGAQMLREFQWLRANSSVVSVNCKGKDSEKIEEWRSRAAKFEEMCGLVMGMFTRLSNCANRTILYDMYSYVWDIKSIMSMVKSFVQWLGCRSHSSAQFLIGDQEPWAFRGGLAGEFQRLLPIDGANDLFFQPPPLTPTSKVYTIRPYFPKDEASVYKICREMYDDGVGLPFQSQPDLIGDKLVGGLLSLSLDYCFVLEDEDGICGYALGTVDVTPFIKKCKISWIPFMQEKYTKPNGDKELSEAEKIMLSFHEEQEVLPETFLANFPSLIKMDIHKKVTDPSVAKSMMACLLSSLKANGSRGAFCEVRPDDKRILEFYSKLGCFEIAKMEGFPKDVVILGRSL
The assay can be described thus: Determination of KI values for inhibition of O-GlcNAcase activity (fluorogenic 4-methylumbelliferyl GlcNAc substrate). Type of assay: biochemical.
Settings: not given
How it is done:
Assay for Determination of […] for Inhibition of O-GlcNAcase Activity
Experimental procedure for kinetic analyses: Enzymatic reactions were carried out in a reaction containing 50 mM NaH2PO4, 100 mM NaCl and 0.1% BSA (pH 7.0) using 2 mM 4-Methylumbelliferyl N-acetyl-β-D-glucosaminide dihydrate (Sigma M2133) dissolved in ddH2O, as a substrate. The amount of purified human O-GlcNAcase enzyme used in the reaction was 0.7 nM. Test compound of varying concentrations was added to the enzyme prior to initiation of the reaction. The reaction was performed at room temperature in a 96-well plate and was initiated with the addition of substrate. […] The slope of product production was determined for each concentration of compound tested and plotted, using standard curve fitting algorithms for sigmoidal dose response curves. The values for a four parameter logistic curve fit of the data were determined.
`CNC1=N[C@@H]2[C@@H](O)[C@H](O)C(C(C)=O)O[C@@H]2S1` (stereo partly drawn) [Example 38, 1-((3aR,6S,7R,7aR)-6,7-dihydroxy-2-(methylamino)-5,6,7,7a-tetrahydro-3aH-pyrano[3,2-d]thiazol-5-yl)ethanone] registered a Ki of 79 nM.

`CCNC1=N[C@@H]2[C@@H](O)[C@H](O)[C@@H](CCl)O[C@@H]2S1` [Example 54, (3aR,5S,6S,7R,7aR)-5-(chloromethyl)-2-(ethylamino)-5,6,7,7a-tetrahydro-3aH-pyrano[3,2-d]thiazole-6,7-diol] registered a Ki of 2.3 nM.

With `CCNC1=N[C@@H]2[C@@H](O)[C@H](O)[C@@H](C(=O)O)O[C@@H]2S1` [Example 52, (3aR,5S,6S,7R,7aR)-2-(ethylamino)-6,7-dihydroxy-5,6,7,7a-tetrahydro-3aH-pyrano[3,2-d]thiazole-5-carboxylic acid], the Ki stood at 27 nM. In the case of `CCNC1=N[C@@H]2[C@@H](O)[C@H](O)[C@@H](C(=O)OC)O[C@@H]2S1` [Example 53, (3aR,5S,6S,7R,7aR)-N-ethyl-6,7-clihydroxy-5-(methoxycarbonyl)-5,6,7,7a-tetrahydro-3aH-pyrano[3,2-d]thiazol-2-aminium chloride], the Ki amounted to 480 nM.

Staying with this assay, now noted: purified human O-GlcNAcase 0.7 nM, 2 mM substrate, pH 7.0, room temperature; Cheng-Prusoff; read-out: Ki.
For the compound `CCNC(=O)[C@H]1O[C@@H]2SC(NC)=N[C@@H]2[C@@H](O)[C@@H]1O` [Example 44, (3aR,5S,6S,7R,7aR)-N-ethy1-6,7-dihydroxy-2-(methylamino)-5,6,7,7a-tetrahydro-3aH-pyrano[3,2-d]thiazole-5-carboxamide], the Ki was 1430 nM. On the same count and under the same terms, to `CN(C)C(=O)CC[C@H]1O[C@@H]2SC(N(C)C)=N[C@@H]2[C@@H](O)[C@@H]1O` [Example 33, 3-((3aR,5R,6S,7R,7aR)-2-(dimethylamino)-6,7-dihydroxy-5,6,7,7a-tetrahydro-3aH-pyrano[3,2-d]thiazol-5-yl)-N,N-dimethylpropanamide] belongs 311 nM. As for `CNC1=N[C@@H]2[C@@H](O)[C@H](O)[C@@H]([C@@H](CCc3ccc(OC)cc3)C(F)(F)F)O[C@@H]2S1` [Example 17, (3aR,5R,65,7R,7aR)-2-(methylamino)-5-((R)-1,1,1-trifluoro-4-(4-methoxyphenyl)butan-2-yl)-5,6,7,7a-tetrahydro-3aH-pyrano[3,2-d]thiazole-6,7-diol], the Ki was 139 nM. In the case of `CCNC1=N[C@@H]2[C@@H](O)[C@H](O)[C@@H](C(=O)NC)O[C@@H]2S1` [Example 48, (3aR,5S,6S,7R,7aR)-2-(ethylamino)-6,7-dihydroxy-N-methyl-5,6,7,7a-tetrahydro-3aH-pyrano[3,2-d]thiazole-5-carboxamide], the Ki came to 370 nM. For the compound `COc1ccc(CC[C@H](O)[C@H]2O[C@@H]3SC(N(C)C)=N[C@@H]3[C@@H](O)[C@@H]2O)cc1` [Example 23, (3aR,5R,6S,7R,7aR)-2-(dimethylamino)-5-((S)-1-hydroxy-3-(4-methoxyphenyl)propyl)-5,6,7,7a-tetrahydro-3aH-pyrano[3,2-d]thiazole-6,7-diol], the Ki is 6.4 nM. `CN(C)C1=N[C@@H]2[C@@H](O)[C@H](O)[C@@H]([C@](O)(Cc3ccccc3)C(F)(F)F)O[C@@H]2S1` [Example 25, (3aR,5S,6S,7R,7aR)-2-(dimethylamino)-5-((R)-1,1,1-trifluoro-2-hydroxy-3-phenylpropan-2-yl)-5,6,7,7a-tetrahydro-3aH-pyrano[3,2-d]thiazole-6,7-diol]: the Ki amounted to 338 nM. Regarding `CNC1=N[C@@H]2[C@@H](O)[C@H](O)[C@@H]([C@@H](O)CCc3ccc(OC)cc3)O[C@@H]2S1` (single isomer, unassigned) [Example 7], the Ki worked out at 1.2 nM. Take `C=C([C@H]1O[C@@H]2SC(NC)=N[C@@H]2[C@@H](O)[C@@H]1O)C(F)(F)F` [Example 15, (3aR,5R,6S,7R,7aR)-2-(methylamino)-5-(3,3,3-trifluoroprop-1-en-2-yl)-5,6,7,7a-tetrahydro-3aH-pyrano[3,2-d]thiazole-6,7-diol]: the Ki was 63 nM. Regarding `CCNC1=N[C@@H]2[C@@H](O)[C@H](O)[C@@H](C#N)O[C@@H]2S1` [Example 58, (3aR,5R,6S,7R,7aR)-2-(ethylamino)-6,7-dihydroxy-5,6,7,7a-tetrahydro-3aH-pyrano[3,2-d]thiazole-5-carbonitrile], the Ki stood at 601 nM.

Regarding `CN(C)C1=N[C@@H]2[C@@H](O)[C@H](O)[C@@H]([C@@](O)(Cc3ccccc3)C(F)(F)F)O[C@@H]2S1` [Example 26, (3aR,5S,6S,7R,7aR)-2-(dimethylamino)-5-(1,1,1-trifluoro-2-hydroxy-3-phenylpropan-2-yl)-5,6,7,7a-tetrahydro-3aH-pyrano[3,2-d]thiazole-6,7-diol], the Ki stood at 66 nM. Regarding `CNC1=N[C@@H]2[C@@H](O)[C@H](O)[C@@H]([C@](O)(CCc3ccc(OC)cc3)C(F)(F)F)O[C@@H]2S1` (single isomer, unassigned) [Example 8], the Ki is 0.95 nM.

Turning to `COc1ccc(CCC(O)([C@H]2O[C@@H]3SC(N(C)C)=N[C@@H]3[C@@H](O)[C@@H]2O)C(F)(F)F)cc1` (stereo in doubt) [Example 29, (3aR,5S,6S,7R,7aR)-2-(dimethylamino)-5-((S)-1,1,1-trifluoro-2-hydroxy-4-(4-methoxyphenyl)butan-2-yl)-5,6,7,7a-tetrahydro-3aH-pyrano[3,2-d]thiazole-6,7-diol], the Ki was found to be 1.1 nM. Regarding `C=CCNC1=N[C@@H]2[C@@H](O)[C@H](O)[C@@H](CC#N)O[C@@H]2S1` [Example 32, 2-((3aR,5R,6S,7R,7aR)-2-(allylamino)-6,7-dihydroxy-5,6,7,7a-tetrahydro-3aH-pyrano[3,2-d]thiazol-5-yl)acetonitrile], the Ki was found to be 130 nM. As for `CCNC1=N[C@@H]2[C@@H](O)[C@H](O)[C@@H](C(=O)NC3CC3)O[C@@H]2S1` [Example 46, (3aR,5S,6S,7R,7aR)-N-cyclopropyl-2-(ethylamino)-6,7-dihydroxy-5,6,7,7a-tetrahydro-3aH-pyrano[3,2-d]thiazole-5-carboxamide], the inhibition constant (Ki) came to 1960 nM. As for `COc1ccc(CC[C@](O)([C@H]2O[C@@H]3SC(N(C)C)=N[C@@H]3[C@@H](O)[C@@H]2O)C(F)(F)F)cc1` [Example 30, (3aR,5S,6S,7R,7aR)-2-(dimethylamino)-5-(1,1,1-trifluoro-2-hydroxy-4-(4-methoxyphenyl)butan-2-yl)-5,6,7,7a-tetrahydro-3aH-pyrano[3,2-d]thiazole-6,7-diol], the Ki worked out at 142 nM. The same measure, in the same setting: the figure for `CCNCC[C@H]1O[C@@H]2SC(NC)=N[C@@H]2[C@@H](O)[C@@H]1O` [Example 55, (3aR,5R,6S,7R,7aR)-5-(2-(ethylamino)ethyl)-2-(methylamino)-5,6,7,7a-tetrahydro-3aH-pyrano[3,2-d]thiazole-6,7-diol] is 9.3 nM. The same measure, in the same setting: the figure for `CCNC1=N[C@@H]2[C@@H](O)[C@H](O)[C@@H](C(=O)NC(C)C)O[C@@H]2S1` [Example 49, (3aR,5S,6S,7R,7aR)-2-(ethylamino)-6,7-dihydroxy-N-isopropyl-5,6,7,7a-tetrahydro-3aH-pyrano[3,2-d]thiazole-5-carboxamide] is 142 nM; for `CNC1=N[C@@H]2[C@@H](O)[C@H](O)[C@@H](CCN)O[C@@H]2S1` [Example 40, (3aR,5R,6S,7R,7aR)-5-(2-aminoethyl)-2-(methylamino)-5,6,7,7a-tetrahydro-3aH-pyrano[3,2-d]thiazole-6,7-diol] it is 24 nM; for `CN(C)C1=N[C@@H]2[C@@H](O)[C@H](O)[C@@H]([C@@H](O)CCc3ccccc3)O[C@@H]2S1` [Example 24, (3aR,5R,6S,7R,7aR)-2-(dimethylamino)-5-((S)-1-hydroxy-3-phenylpropyl)-5,6,7,7a-tetrahydro-3aH-pyrano[3,2-d]thiazole-6,7-diol] it is 15 nM. Regarding `CCOC(=O)/C=C/[C@H]1O[C@@H]2SC(NC)=N[C@@H]2[C@@H](O)[C@@H]1O` [Example 5, (E)-ethyl 3-((3aR,5R,6S,7R,7aR)-6,7-dihydroxy-2-(methylamino)-5,6,7,7a-tetrahydro-3aH-pyrano[3,2-d]thiazol-5-yl)acrylate], the Ki is 72 nM.

On to `CN(C)C1=N[C@@H]2[C@@H](O)[C@H](O)[C@@H](CC#N)O[C@@H]2S1` [Example 11, 2-((3aR,5R,6S,7R,7aR)-2-(dimethylamino)-6,7-dihydroxy-5,6,7,7a-tetrahydro-3aH-pyrano[3,2-d]thiazol-5-yl)acetonitrile], for which the Ki turned out to be 5.9 nM.

For orientation: Ki means a measure of affinity in units of concentration, obtained from inhibition or displacement.

The values are drawn from patent US9938299B2, “Glycosidase inhibitors and uses thereof” (MERCK SHARP & DOHME CORP., priority 2012, dated 2018).
